Source: US8394355B2, “Use of UTP for the diagnosis of stenoses and other conditions of restricted blood flow” (P2 science Aps, priority 2009, dated 2013)

Legend:
leg blood flow = settings: cited from earlier work; for relative vasoactive potency (rank order): only for blood flows around 3.5 Lmin^−1
[1] = tested on: pulmonary and systemic circulation of healthy female pigs; test: Systemic (central intravenous) nucleotide infusion in pigs, hemodynamic response; format: in vivo; settings: for increase in CO (cardiac output): FIG. 7b; for increase in HR from baseline: FIG. 7c; for decrease in SV (stroke volume): FIG. 7d; for MAP lowered by, from baseline: p<0.05, FIG. 7a; for infusion rate at target MAP: target ~50% reduction in baseline MAP, right atrium infusion
Method: In the present study, the hemodynamic response in the pulmonary and systemic circulation was tested, as well as the effect of central intravenous infusions of ATP, ADP, ADO, and UTP on the heart.
Infusion rates were aimed at exerting a pronounced systemic response in the lowering of arterial blood pressure, but avoiding a total circulatory collapse.
Methods: 10 healthy female pigs (Department of Experimental Medicine and Surgery, University of Copenhagen, Denmark) bred as a combination of the Danish Landrace (⅓) and Yorkshire (⅔), with a medium weight of 41±2 kg were investigated.
Mean arterial blood pressure (MAP) was obtained from the catheter in arcus aorta with the transducer (Pressure Monitoring Kit, Baxter, Deerfield, Ill., USA) positioned at the level of the heart. The left femoral artery was subsequently exposed and an ultrasound doppler probe attached for peripheral femoral artery flow measurements (CM-4000, Cardiomed, Norway). MAP, HR and peripheral flow were monitored and data continuously collected using a PowerLab system (Adinstruments, Australia). Cardiac Output (CO) was determined in triplicates by thermodilution, following an injection of 10 ml of cooled saline solution. Blood samples were withdrawn from catheters in aorta and the right atrium at baseline and at steady state when MAP had decreased maximally or by ˜50%. Calculated variables were: stroke volume of the heart (SV=CO/HR), pulmonary vascular resistance (PVR=(MPAP−PCWP)/CO), systemic vascular resistance (SVR=(MAP−MRAP)/CO), leg vascular conductance (LVC=LBF/(MAP−MRAP)), and arterial (aorta) and mixed venous (pulmonary artery) oxygen content (Hb*1.34*O2 saturation). In the calculation of LVC, MRAP was used as an estimate of mean femoral venous pressure (MFVP), as MRAP was found in a series of measurements to equal MFVP, as estimated in 10 supine pigs. As a potential estimate for myocardial oxygen demand the rate pressure product (RPP=MAP*HR) was also calculated.
Drug infusions: Each animal was administered the nucleotides ATP, UTP, ADP (Sigma, St. Louis, Mo., USA) and ADO (Item Development AB, Stocksund, Sweden), through the internal jugular vein in the right atrium, in random order following blinded allocation. The nucleotides and ADO were prepared by dissolving in saline so as to achieve the target concentration of ATP (40±0.5 μmol/min), ADP (43±8 μmol/min), UTP (up to 1,600 μmol/min), and ADO (73±7 μmol/min). The nucleotides were infused in increasing dosages at 2 min intervals aiming at reducing MAP by maximally ˜50%. Thereafter, that specific infusion rate was maintained for ˜3-5 min. After each intervention the animal rested for ˜30 min, allowing resting cardiovascular variables to be reestablished. Thereafter, a new cycle of nucleotide infusion was administered. In the present study we aimed to allow the drugs to reduce MAP by ˜50%, but without inducing a hemodynamic and circulatory collapse, to simulate a pronounced state of systemic vasodilation, as may be observed for instance in a shock condition.

[2] = tested on: infarct area during acute myocardial infarction; test: ADP or UTP infusion during myocardial infarction in pigs (unpublished); format: in vivo; settings: infused during acute myocardial infarction, unpublished results
Text: This is clearly in contrast to previous findings, but is more clinically relevant as most cardiac patients are older. […] This conclusion is also supported by another study by the present inventor in pigs where ADP or UTP was infused during myocardial infarction. […] Therefore, the previous assumptions in patent application WO 2007/065437 relating to the regulation of purinergic receptor activity to modulate vascular tone, particularly for treating hemodynamic conditions by overriding vasoconstriction activity, which could potentially have clinical applications for treatment with UTP agonists or antagonists, is incorrect.

Nc1ncnc2c1ncn2[C@@H]1O[C@H](COP(=O)(O)OP(=O)(O)OP(=O)(O)O)[C@@H](O)[C@H]1O [ATP]
blood flow increase, % of maximum in the leg during hard exercise (leg blood flow; local infusion): 85%
relative vasoactive potency (rank order) (leg blood flow): 100
increase in CO (cardiac output) [1]: 35.1±6.9%
increase in HR from baseline [1]: 23.0±5.7%
decrease in SV (stroke volume) [1]: did not significantly change SV
decrease in LBF (leg blood flow) from baseline ([1]; p<0.05): 22.7±4.2%
decrease in SVR (systemic vascular resistance) from baseline ([1]; p<0.05): 61.6±2.1%
increase in LVC (leg vascular conductance) from baseline ([1]; p<0.05): 44.7±8.7%
MAP lowered by, from baseline [1]: 47.4±1.7%
decrease in PVR (pulmonary vascular resistance) from baseline ([1]; pig, in vivo): 37.8±4.9%
infusion rate at target MAP [1]: 40.2 ± 0.5 µmol/min

Nc1ncnc2c1ncn2[C@@H]1O[C@H](COP(=O)(O)OP(=O)(O)O)[C@@H](O)[C@H]1O [ADP]
relative vasoactive potency (rank order) (leg blood flow): 2.7
increase in CO (cardiac output) [1]: not alter CO
increase in HR from baseline [1]: 26.6±4.6%
decrease in SV (stroke volume) [1]: 21.1±5.6%
PVR reached during titration ([1]; dose dependent increase): 7.3±1.2 Wood Unit
decrease in LBF (leg blood flow) from baseline ([1]; p<0.05): 34.9±10.2%
decrease in SVR (systemic vascular resistance) from baseline ([1]; p<0.05): 49.5±2.0%
increase in PVR ([1]; p<0.05): 156.7±38.3%
MAP lowered by, from baseline [1]: 48.4±1.2%
infusion rate at target MAP [1]: 43.2 ± 7.7 µmol/min
effect on infarct area [2]: diminished it

Nc1ncnc2c1ncn2[C@@H]1O[C@H](COP(=O)(O)O)[C@@H](O)[C@H]1O [AMP]
relative vasoactive potency (rank order) (leg blood flow): 1.7
